This note sets out measurements from article PMC9179154, “Identification of acetylated diether lipids in halophilic Archaea” (MicrobiologyOpen, 2022).

This assay has as its target T1, hvYvoF (YvoF from Haloferax volcanii) (Haloferax volcanii, UniProt D4GZM3).
T1 construct: full length, C-terminal His6 tag, pTA1228 vector, NdeI/XhoI; homologous expression in H. volcanii H1424, IMAC; printed cloning primers encode N-terminus MTDDDAAP and C-terminus DETDGA before LE of the XhoI site
The experiment in a line: […]-GGG acetylation, TLC and autoradiography. The assay is classed as biochemical. Particulars: acetyl-CoA 0.25 mM, MgCl2 10 mM, 1300 mM NaCl, 0.2% Tween80, pH 8.0, 40 °C; labelled compound.

T1 sequence (D4GZM3 entry or part of it): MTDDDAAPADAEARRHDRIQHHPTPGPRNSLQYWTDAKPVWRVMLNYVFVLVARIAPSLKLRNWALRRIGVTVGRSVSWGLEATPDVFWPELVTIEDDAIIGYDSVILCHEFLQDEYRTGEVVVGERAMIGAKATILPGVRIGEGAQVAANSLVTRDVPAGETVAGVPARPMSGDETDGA

With `CC(C)=CCC/C(C)=C/CC/C(C)=C/CC/C(C)=C/COC[C@H](O)CO` [GGG, geranylgeranylglycerol], the “14C-GGG acetylation, TLC and autoradiography” value is “GGG was gradually diacetylated (to Ac2‐GGG) by hvYvoF with increasing incubation time”.
